Measured values taken from US20090012069A1, “Novel Antidiabetic Compounds” (priority 2004, published 2009).

Assays:
[1] = system: Hamster of Syrian golden stain; experiment: Serum triglyceride lowering activity in HF-HC diet fed Hamster of Syrian golden stain; assay type: in vivo; conditions: HF-HC diet hamsters, 3 mg/kg/day oral gavage, non-fasted serum on day 14, 1 hr after dose
Description: ii) Serum triglyceride and total cholesterol lowering activity in Hamster of Syrian golden stain:
Male and Female Hamster of Syrian golden stain were bred in Zydus animal house. All these animals were maintained under 12-hour light and dark cycle at 22±3 degree C. The protocol approved by Institutional Animal Ethics Committee is being used. Animals of 3-12 weeks age (80-150 gm body weight) were taken for study. Near the end of the acclimatization period, animals judged to be suitable for testing will bee weighed. […] Other animals were put on HF-HC (High fat and high cholesterol) diet for 14 days.
Each animal received a single dose of ZY compounds at 0.001 to 50 mg/kg/ as a carbomethoxy cellulose or polyethylene glycol in the evening administered as an oral gavage daily for 15 days. On day 14, after 1 hr of dose administration, non-fasted blood samples were collected in non heparinized capillary from animals for determination of total cholesterol (TC), triglyceride (TG) (Wieland, O. Methods of Enzymatic analysis. Bergermeyer, H., O., Ed., 1963. 211-214; Trinder, P. Ann. Clin. Biochem. 1969. 6: 24-27). Measurement of serum triglyceride and total cholesterol was done using commercial kits (Pointe Scientific.Inc.USA.) And on day 14 night all animals will be kept for fasting for 12-16 hours. On day 15, after 1 hour of dose administration fasted blood samples will be collected from animals for determination of high density lipoprotein (HDL), and low density lipoprotein (LDL) in serum. The animals will then be euthanized by carbon-dioxide asphyxia (and cervical dislocation, if necessary) and heart, kidney and liver will be resected and weighed.
(§1) Percentage reduction in triglycerides/total cholesterol were calculated according to the formula:
Percentage reduction(%)=(TT−TC)/TC*100
TC=Test day control group TT=Test day treated group.

[2] = biological target: T1, hPPAR α (Homo sapiens, UniProt Q07869); experiment: In vitro hPPAR alpha activity (in-house protocol); assay type: cell-based; conditions: read-out: EC50 (PPAR alpha)
T1 sequence (Q07869 1-468): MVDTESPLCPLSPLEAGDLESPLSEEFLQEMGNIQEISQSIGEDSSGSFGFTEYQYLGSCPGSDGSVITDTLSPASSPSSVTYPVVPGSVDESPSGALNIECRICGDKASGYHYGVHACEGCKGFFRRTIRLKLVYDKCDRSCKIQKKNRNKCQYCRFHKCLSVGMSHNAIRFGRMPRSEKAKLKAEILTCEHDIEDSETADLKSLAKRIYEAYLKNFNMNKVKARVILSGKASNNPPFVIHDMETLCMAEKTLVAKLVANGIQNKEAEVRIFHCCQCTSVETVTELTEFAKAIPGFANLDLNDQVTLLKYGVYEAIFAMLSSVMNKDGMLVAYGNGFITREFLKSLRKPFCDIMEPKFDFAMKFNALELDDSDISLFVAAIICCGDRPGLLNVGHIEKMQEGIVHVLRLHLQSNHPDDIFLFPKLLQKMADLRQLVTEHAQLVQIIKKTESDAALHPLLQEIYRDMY
Description: (§2) In vitro hPPAR α & hPPARγ activities were determined as per in-house protocols and the results of representative compounds are provided below as a proof of the efficacies of the novel class of compounds disclosed above.

[3] = biological target: T2, hPPARγ (Homo sapiens, UniProt P37231); experiment: In vitro hPPAR gamma activity (in-house protocol); assay type: cell-based; conditions: read-out: EC50 (PPAR gamma)
T2 sequence (P37231 1-505): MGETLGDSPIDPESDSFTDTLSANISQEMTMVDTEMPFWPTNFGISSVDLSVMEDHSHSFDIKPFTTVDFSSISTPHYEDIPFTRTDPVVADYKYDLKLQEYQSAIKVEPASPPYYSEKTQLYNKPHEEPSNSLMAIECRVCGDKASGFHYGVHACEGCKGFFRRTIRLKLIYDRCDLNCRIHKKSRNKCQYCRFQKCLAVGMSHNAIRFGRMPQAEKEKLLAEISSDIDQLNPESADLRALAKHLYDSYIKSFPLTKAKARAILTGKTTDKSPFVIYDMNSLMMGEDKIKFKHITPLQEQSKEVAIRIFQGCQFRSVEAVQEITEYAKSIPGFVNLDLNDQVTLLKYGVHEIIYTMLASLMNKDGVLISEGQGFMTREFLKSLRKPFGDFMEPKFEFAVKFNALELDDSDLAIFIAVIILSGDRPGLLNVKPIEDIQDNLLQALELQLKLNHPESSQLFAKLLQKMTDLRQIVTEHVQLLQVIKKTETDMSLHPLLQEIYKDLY
Description: as §2

[4] = system: Swiss albino mice; experiment: Serum triglyceride lowering activity in Swiss albino mice; assay type: in vivo; conditions: male Swiss albino mice, 10 mg/kg/day orally for 6 days, serum 1 hour after dose on 6th day, fed state
Description: i) Serum Triglyceride and Total Cholesterol Lowering Activity in Swiss Albino Mice:
Male Swiss albino mice (SAM) were bred in Zydus animal house. All these animals were maintained under 12 hour light and dark cycle at 25±1° C. Animals were given standard laboratory chow (NIN, Hyderabad, India) and water ad libitum. SAM of 20-30 g body weight range was used. The protocol approved by Institutional Animal Ethics Committee is being used.
The test compounds were administered orally to Swiss albino mice at 0.001 to 50 mg/kg/day dose for 6 days. The compound was administered after suspending it in 0.25% CMC or dissolving it in water, when compound is water-soluble. Control mice were treated with vehicle (0.25% of Carboxymethyl cellulose; dose 10 ml/kg).
The blood samples were collected on 0th day and in fed state 1 hour after drug administration on 6th day of the treatment. The blood was collected in non heparinised capillary and the serum was analyzed for triglyceride and total cholesterol (Wieland, O. Methods of Enzymatic analysis. Bergermeyer, H., O., Ed., 1963. 211-214; Trinder, P. Ann. Clin. Biochem. 1969. 6: 24-27). Measurement of serum triglyceride and total cholesterol was done using commercial kits (Zydus-Cadila, Pathline, Ahmedabad, India).
as §1
[formula] • OC=Zero day control group value OT=Zero day treated group value • TC=Test day control group TT=Test day treated group

| Compound | % Triglyceride lowering [1] | EC50 [2] | EC50 [3] | % Triglyceride lowering [4] |
| --- | --- | --- | --- | --- |
| CC1(C(=O)O)OCC(c2ccc(OCCOc3ccc(Oc4ccccc4)cc3)cc2)CO1 (stereo not drawn) [Example 106, 2-Methyl-5-cis-{4-[2-(4-phenoxy-phenoxy)-ethoxy]-phenyl}-[1,3]dioxane-2-carboxylic acid] | 50% | – | – | – |
| Cc1oc(-c2ccccc2)nc1CCOc1ccc(CC2COC(C)(C(=O)O)OC2)cc1 (stereo not drawn) [Example 61, 2-Methyl-5-{4-[2-(5-methyl-2-phenyl-oxazol-4-yl)-ethoxy]-benzyl}-[1,3]dioxane-2-carboxylic acid] | 30% | 1090 nM | 96 nM | 23% |
| CC1(C(=O)O)OCC(c2ccc(OCCc3ccc(OS(C)(=O)=O)cc3)cc2)CO1 (stereo not drawn) [Example 96, 5-cis-{4-[2-(4-Methanesulfonyloxy-phenyl)-ethoxy]-phenyl}-2-methyl-[1,3]dioxane-2-carboxylic acid] | 41% | – | – | – |
| Cn1c(COc2ccc(CC3COC(C)(C(=O)O)OC3)cc2)nc2ccccc2c1=O (stereo not drawn) [Example 66, 2-Methyl-5-[4-(3-methyl-4-oxo-3,4-dihydro-quinazolin-2-ylmethoxy)-benzyl]-[1,3]dioxane-2-carboxylic acid] | – | 72 nM | 15 nM | 40% |
| CC1(C(=O)O)OCC(Cc2ccc(OCCn3ccc4ccccc43)cc2)CO1 (stereo not drawn) [Example 70, 5-cis-[4-(2-Indol-1-yl-ethoxy)-benzyl]-2-methyl-[1,3]dioxane-1-carboxylic acid] | – | 600 nM | 19.8 nM | – |
| Cc1ccc(-c2nc(CCOc3ccc(C4COC(C)(C(=O)O)OC4)cc3)c(C)o2)cc1 (stereo not drawn) [Example 100, 2-Methyl-5-trans-{4-[2-(5-methyl-2-p-tolyl-oxazol-4-yl)-ethoxy]-phenyl}-[1,3]dioxane-2-carboxylic acid] | – | – | – | 44% |
